Assay results: US7247627B2, “Salts and polymorphs of a pyrrole-substituted indolinone compound” (Pharmacia & Upjohn Company, priority 2003, dated 2007)
Where a name gives a salt, the structure may show the parent alone.

Assay: Hygroscopicity by dynamic moisture sorption gravimetry (DMSG)
Type: physicochemical
Conditions: DMSG; for Water Uptake at 80% RH (wt. %): 25° C., 80% relative humidity
Procedure: In one embodiment, the invention provides a non-hygroscopic salt of 5-[(Z)-(5-fluoro-2-oxo-1,2-dihydro-3H-indol-3-ylidene)methyl]-N-[(2S)-2-hydroxy-3-morpholin-4-ylpropyl]-2,4-dimethyl-1H-pyrrole-3-carboxamide. Hygroscopicity is determined by dynamic moisture sorption gravimetry (DMSG) using a controlled atmosphere microbalance at a temperature of 25° C. Samples are analyzed over a relative humidity range of from 0 to 90% in 3% steps. Each step is brought to equilibrium before moving to the next step, with equilibrium assessed as a weight change of less than 0.002 mg (0.02%) for five consecutive points at 1 point per 120 seconds.
Several salts of 5-[(Z)-(5-fluoro-2-oxo-1,2-dihydro-3H-indol-3-ylidene)methyl]-N-[(2S)-2-hydroxy-3-morpholin-4-ylpropyl]-2,4-dimethyl-1H-pyrrole-3-carboxamide were produced and analyzed for hygroscopicity. Hygroscopicity was determined by dynamic moisture sorption gravimetry (DMSG) using a controlled atmosphere microbalance at a temperature of 25° C. Samples were analyzed over a relative humidity range of from 0 to 90% in 3% steps, in a humidity profile of […], where the initial value of 36% reflects the approximate initial equilibrated relative humidity (not specifically measured). Each step was brought to equilibrium before moving to the next step, with equilibrium assessed as a weight change of less than 0.001 mg (0.01%) or 0.002 mg (0.02%) for five consecutive points at 1 point per 120 seconds. The water uptake at 80% relative humidity (RH) was selected for comparison between the salts. The 80% RH values for each salt are shown in Table 5, and the right column of the table identifies the corresponding Figure showing the complete DMSG scan. A range of values given for the water uptake at 80% reflects hysteresis in the 0→90% and 90→0% scans.

| SMILES | Water Uptake at 80% RH (wt. %) | hygroscopicity | hysteresis of sorption profile |
| --- | --- | --- | --- |
| Cc1[nH]c(/C=C2\C(=O)Nc3ccc(F)cc32)c(C)c1C(=O)NC[C@H](O)CN1CCOCC1 [Malonate, 5-[(Z)-(5-fluoro-2-oxo-1,2-dihydro-3H-indol-3-ylidene)methyl]-N-[(2S)-2-hydroxy-3-morpholin-4-ylpropyl]-2,4-dimethyl-1H-pyrrole-3-carboxamide] | 12 wt. % |  |  |
| Cc1[nH]c(/C=C2\C(=O)Nc3ccc(F)cc32)c(C)c1C(=O)NC[C@H](O)CN1CCOCC1 [HCl, form 2, 5-[(Z)-(5-fluoro-2-oxo-1,2-dihydro-3H-indol-3-ylidene)methyl]-N-[(2S)-2-hydroxy-3-morpholin-4-ylpropyl]-2,4-dimethyl-1H-pyrrole-3-carboxamide] | 1.2 wt. % | relatively non-hygroscopic | no significant hysteresis |
